Entries after “also recorded” stand apart in the source; their conditions may differ. Residues, ends and D or L forms follow the SMILES beside them.

The test system of series [1] is PSMA positive LNCaP cells. As to conditions: LNCaP cell viability.
Excerpt: The amount of encapsulated abiraterone was estimated following a reported protocol and defined as encapsulation efficiency.
For series [2], the system named is PSMA-expressing PCa cells. Nature of the series: Effects of CT20p upon cell adhesion and anoikis. It counts as cell-based. The method, then: An essential activity that promotes the invasiveness of metastatic cells is rearrangement of the cytoskeleton, which can be linked to integrin signaling. […] At selected time points, PCa cells (Table 1) as well as control cells were treated with Mitotracker Red to visualize mitochondria and then were fixed on coverslips for staining with Alexa Fluor™ 647 phalloidin, a high-affinity F-actin probe, or Deoxyribonuclease I, Alexa Fluor™ 488-conjugate for G-actin for imaging by confocal microscopy (Zeiss 710). To examine how integrin signaling was impaired by CT20p, the surface expression of integrins detected with fluorescence-conjugated antibodies (β1, CD29 and αVβ3, CD51/61) by flow cytometry, was examined. Levels of additional integrins (αV or α5) were also evaluated by immunoblotting cell lysates. To determine whether cell detachment and the reduction in integrin levels could activate anoikis, the CytoSelect® 96-well Anoikis Assay Kit was used and standard assays of cell migration and invasion were performed. Additionally, to test the effects of CT20p under conditions of directed migration, the cells described above were treated with conditioned media from 3T3 cells, which contains chemotactic factors.

Series [3] relates to cells. As to conditions: cited from earlier work.
In series [4] the test system is normal cells. Nature of the series: CT20p in normal cells / control epithelial cell line. Format: cell-based. The method, then:
(§1) Recently, a mitotoxic peptide that kills cancer cells was discovered. […] Cell death (anoikis), indicated by membrane asymmetry, was detectable in cancer cells by 48 hours (FIG. 18J). […] These findings indicate that CT20p impairs cancer cell invasiveness through its actions on mitochondria and the cytoskeleton, which causes detachment-induced cell death.

Series [5] concerns cancer cells. The following applies: expression or introduction of CT20p in cancer cells; cited from earlier work.
Series [6] concerns cancer cells. Nature of the series: CT20p activities in cancer cells (timeline). Format: cell-based. The method, then:
FIGS. 18A-18J illustrate a timeline of CT20p activities in cancer cells. […] Gates are N, necrotic; V, viable; A, apoptotic. Percentages are V (black) and N+A (red). FIG. 18E is a graph showing that by 6 hours, cells detach from the substrate (fibronectin). Such cell detachment was measured using a crystal violet adhesion assay.
as §1

Series [7] relates to PSMA(+) PC3 tumors. The following applies: two week experiment (FIG. 22D).
Description: FIG. 22A depicts an image of mice that were injected subcutaneously (SC) with PSMA(+) (right flank) or PSMA(−) (left flank) PCa tumor cells. Upon tumor detection (˜2 weeks), the mice were injected intravenously (IV) with PEG-(FOL)-HBPE-NPs (2 mg/kg/dose) containing a near IR dye (FIG. 22A) or CT20p (FIG. 22B). Mice were imaged after 24 hours (FIG. 22A) or sacrificed after 10 days (FIG. 22B). […] FIG. 22D is a graph that summarizes a two week experiment in which mice (n=5) bearing PSMA+ tumors (SC) were IV injected once per week with FOL-HBPE-NPs (2 mg/kg/dose) that were empty or had CT20p and were compared to COOH-NPs (untargeted) with CT20p or FOL-targeted doxorubicin (DOX). *p<0.05. The mice were euthanized before the tumors ulcerated.
For series [8], the system named is PCa primary tumors and metastatic lesions.
Description: Results were compared with those obtained with free doxorubicin or folate-ss-doxorubicin. Again, the lead HBPE-NP preparations from Experiment 2 were used. Male SCID mice were used that are either intact or castrated and treated with testosterone (SC) or DHT pellet. SCID mice were injected SC with luciferase expressing LNCaP cells and, upon tumor growth, D-luciferin was injected prior to imaging (IVIS, Perkin Elmer). In all experiments, NPs without targeting ligand or without CT20p were used as controls. Mice were injected once every week, for 3-4 weeks, with control DFO-HBPE-NPs or PSMA-targeted DFO-HBPE(CT20p)-NPs. Tumor growth was monitored by measuring the tumor size using a caliper or by ultrasound as well as by bio-luminescence as described above. In addition, blood was collected for weekly PSA measurements (with a commercially available ELISA), using the value prior to therapy as a baseline. The tumors were followed for 6 weeks or until reaching 1.5 cm in size (whichever came first). At experimental endpoints, remaining tumor tissue, as well as liver, spleen, kidney, lungs and brain, were collected and examined by immunohistochemistry (using J591 to identify PSMA) and also qRT-PCR and quantitative Western Blot for PSMA levels in the tumor to correlates with response to the targeted therapy. […]
Series [9] deals with macrophages (RAW cells). As to the kind of experiment: Cell death of non-transformed cells (Sytox analysis). It counts as cell-based. Here is the method:
FIGS. 21A-21J show dose- (FIGS. 21A, 21C) and time- (FIGS. 21D, 21F) dependent cytotoxicity assay of PCa cells treated with Folate.HBPE(Dil)-NPs. PCa Cells: LNCap (FIGS. 21A, 21D), PSMA(+) PC3 (FIGS. 21B, 21E) and PC3 (FIGS. 21C, 21F). […] V, viable; N, necrotic, A, apoptotic.
To study any effect that folate-HBPE (CT20p)-NPs may have on non-transformed cells, macrophages (RAW cells) were incubated with the folate-HBPE(CT20p)-NPs and cell death was assessed.

The mark [10] stands for this setting: by 24 hours post-CT20p treatment.

As to `C[C@]12CC[C@H](O)CC1=CC[C@@H]1[C@@H]2CC[C@]2(C)C(c3cccnc3)=CC[C@@H]12` [abiraterone], in series [1], the 50% inhibitory concentration (IC50) – broadly, the concentration at which inhibition is half-maximal – was 2550 nM.
In the case of `CC[C@H](C)[C@H](NC(=O)[C@@H](NC(=O)[C@H](CC(C)C)NC(=O)[C@H](CO)NC(=O)[C@H](C)NC(=O)[C@@H](NC(=O)[C@H](CC(C)C)NC(=O)[C@@H](NC(=O)CNC(=O)[C@H](C)NC(=O)[C@@H](NC(=O)[C@H](Cc1ccccc1)NC(=O)[C@@H](NC(=O)[C@@H](NC(=O)[C@@H](NC(C)=O)C(C)C)[C@@H](C)O)[C@@H](C)CC)C(C)C)C(C)C)[C@@H](C)O)[C@@H](C)O)C(=O)N[C@@H](Cc1c[nH]c2ccccc12)C(=O)N[C@@H](CCCCN)C(=O)N[C@@H](CCCCN)C(=O)N[C@@H](CCSC)C(=O)NCC(N)=O` [CT20p] (Ac-VTIFVAGVLTASLTIWKKMG-NH2), the “F-actin and integrin signaling” value in series [2] was “loss of F-actin and reduced integrin signaling”. Further, in series [3], the uptake by cells entry was “not taken up by cells”. In addition, the “mitochondrial localization, autophagosome formation or cell death” value in series [4] (control epithelial cell line) was “not observed”. In series [4] (normal cells (FIG. 19C)), the cell death entry is “minimal cell death was detected”. Moreover, the “block of cell death by Bcl-2 overexpression, Bax deficiency or caspase inhibition” value in series [5] is listed as “minimally blocked it”. Also, the “concentration range in which the peptide works” value in series [6] is “nanomolar range”. In series [6] (setting [10]), the ROS production entry is given as “increased ROS production”, the autophagy entry is on record as “induction of autophagy” and the caspases result is on record as “activation of caspases”. Also, the mitochondrial membrane effect result in series [6] (cancer cells) was “hyperpolarization of the mitochondrial membrane and fusion-like aggregation; also recorded: mitochondrial membranes hyperpolarize and fuse”. In series [6] (prior to cell detachment), the “β1 integrin surface level” value is recorded as “decreased surface expression of β1 integrin; also recorded: membrane levels of β1 integrin decreased”. Besides, in series [6] (˜3.4 nM CT20p in NPs, cancer cells), the “co-localization of peptide with mitochondria” value is on record as “co-localization of the peptide (red) with mitochondria (green) was detected”. In [7], the “efficacy in PSMA+ tumors” value is on record as “more effective than drugs like Doxoyrubucin”.
In the case of `COc1cccc2c1C(=O)c1c(O)c3c(c(O)c1C2=O)C[C@@](O)(C(=O)CO)C[C@@H]3O[C@H]1C[C@H](N)[C@H](O)[C@H](C)O1` [Doxorubicin], in [8] (also castration and hormone signaling conditions), the tumor regression entry is listed as “Tumor regression also occurs”. Besides, the off-target toxicity result in [8] (mouse, in vivo) is on record as “off-target toxicity was observed”. In series [9], the toxicity to macrophages result is listed as “death of macrophages was observed”.

The values above are taken from US10973925B2, “Methods and compositions for theranostic nanoparticles” (University of Central Florida Research Foundation, Inc., priority 2015, dated 2021).
